≈ marks a conversion by molar mass, not a printed value. Values belong to the compound of their own block, whether it stands above or below them.
Assays:
Test in all cases: ≥ marks a high value that may be exact or a test limit, other limits are often not marked, values filed in µg/mL are converted to µM
[1] = system: Pseudomonas aeruginosa ATCC 27853
Escherichia coli = system: Escherichia coli
[2] = system: Salmonella enterica subsp. enterica serovar Typhimurium ATCC 14028
[3] = system: Pseudomonas aeruginosa PAO1
Acinetobacter baumannii = system: Acinetobacter baumannii
Pseudomonas aeruginosa = system: Pseudomonas aeruginosa
Escherichia coli K88 = system: Escherichia coli K88
[4] = system: Salmonella enterica subsp. enterica serovar Typhimurium C77-31
[5] = system: Pseudomonas aeruginosa CICC 21625
Klebsiella pneumoniae = system: Klebsiella pneumoniae
Escherichia coli UB1005 = system: Escherichia coli UB1005
[6] = system: Salmonella enterica subsp. enterica serovar Pullorum C79-13
Escherichia coli K99 = system: Escherichia coli K99
[7] = system: Pseudomonas aeruginosa CICC 21630
[8] = system: Escherichia coli ATCC 25922
[9] = system: Staphylococcus aureus ATCC 29213
Staphylococcus aureus = system: Staphylococcus aureus
Candida albicans = system: Candida albicans
[10] = system: Candida albicans ATCC 90029
[11] = system: Mycobacterium tuberculosis H37Rv
[12] = system: Mycobacterium tuberculosis WXY
[13] = system: Mycobacterium tuberculosis CAS3
[14] = system: Staphylococcus aureus USA 200
[15] = system: Candida tropicalis ATCC 13803
[16] = system: Staphylococcus epidermidis 1457
[17] = system: Staphylococcus aureus MU50
[18] = system: Staphylococcus aureus USA 400
[19] = system: Candida albicans ATCC 10231
Bacillus subtilis 168 = system: Bacillus subtilis 168
[20] = system: Staphylococcus aureus Newman
[21] = system: Klebsiella pneumoniae ATCC 13883
[22] = system: Candida glabrata ATCC 2001
[23] = system: Staphylococcus aureus UAMS-1
[24] = system: Staphylococcus pseudintermedius
Escherichia coli MC1041 = system: Escherichia coli MC1041
[25] = system: Salmonella enterica subsp. enterica serovar Enteritidis MH91989
[26] = system: Escherichia coli JW0368 ΔsbmA
[27] = system: Salmonella typhimurium SL1344
Escherichia coli JJ2489 = system: Escherichia coli JJ2489
Escherichia coli J2210 = system: Escherichia coli J2210
[28] = system: Escherichia coli JW2778 ΔygdD
Escherichia coli JW0013 = system: Escherichia coli JW0013
Escherichia coli BW25113 = system: Escherichia coli BW25113

MIC [1]: > 64 µM
MIC (Escherichia coli): > 64 µM
MIC [2]: > 64 µM
MIC [3]: > 64 µM
MIC (Acinetobacter baumannii): ≥ 64 µM
MIC (Pseudomonas aeruginosa): > 64 µM
MIC (Escherichia coli K88): ≥ 64 µM
MIC [4]: ≥ 64 µM
MIC [5]: ≥ 64 µM
MIC (Klebsiella pneumoniae): > 64 µM
MIC (Escherichia coli UB1005): ≥ 64 µM
MIC [6]: ≥ 64 µM
MIC (Escherichia coli K99): ≥ 64 µM
MIC [7]: ≥ 64 µM
MIC [8]: > 64 µM
SMILES: CC(C)[C@H](N)C(=O)N[C@@H](CCCCN)C(=O)N1CCC[C@H]1C(=O)N[C@H](C(=O)N[C@H](C(=O)N[C@@H](CCCCN)C(=O)N1CCC[C@H]1C(=O)N[C@H](C(=O)N[C@H](C(=O)N[C@@H](CCCCN)C(=O)N1CCC[C@H]1C(=O)N[C@H](C(=O)N[C@H](C(=O)N[C@@H](CCCCN)C(=O)N1CCC[C@H]1C(=O)N[C@H](C(=O)N[C@H](C(=O)N[C@@H](CCCCN)C(=O)N1CCC[C@H]1C(=O)N[C@H](C(=O)N[C@H](C(=O)N[C@@H](CCCCN)C(=O)N1CCC[C@H]1C(=O)N[C@H](C(=O)N[C@H](C(=O)N[C@@H](CCCCN)C(=O)N1CCC[C@H]1C(=O)N[C@H](C(N)=O)C(C)C)C(C)C)C(C)C)C(C)C)C(C)C)C(C)C)C(C)C)C(C)C)C(C)C)C(C)C)C(C)C)C(C)C)C(C)C [VKPVVKPVVKPVVKPVVKPVVKPVVKPV]

MIC [9]: 2.99 µM (≈ 6.25 µg/mL)
MIC (Escherichia coli): 1.49 µM (≈ 3.12 µg/mL)
MIC (Staphylococcus aureus): 1.49 µM (≈ 3.12 µg/mL)
MIC (Pseudomonas aeruginosa): 2.99 µM (≈ 6.25 µg/mL)
MIC (Candida albicans): 2.99 µM (≈ 6.25 µg/mL)
MIC [10]: 5.98 µM (≈ 12.5 µg/mL)
MIC [8]: 1.49 µM (≈ 3.12 µg/mL)
SMILES: CC(C)C[C@H](NC(=O)[C@H](Cc1cnc[nH]1)NC(=O)[C@H](CO)NC(=O)[C@H](C)NC(=O)[C@H](CC(C)C)NC(=O)[C@@H](NC(=O)[C@@H](NC(=O)[C@H](CC(C)C)NC(=O)[C@H](CC(C)C)NC(=O)[C@H](CO)NC(=O)[C@H](Cc1cnc[nH]1)NC(=O)[C@H](CO)NC(=O)[C@H](CC(C)C)NC(=O)[C@H](CC(C)C)NC(=O)[C@H](CCCCN)NC(=O)[C@H](Cc1ccccc1)NC(=O)[C@H](CCCN=C(N)N)NC(=O)[C@@H](N)CCCN=C(N)N)C(C)C)[C@@H](C)O)C(=O)O [RRFKLLSHSLLVTLASHL]

MIC [11]: ≥ 93.1 µM
MIC [12]: ≥ 93.1 µM
MIC [13]: ≥ 93.1 µM
SMILES: CC(C)C[C@H](NC(=O)[C@H](C)NC(=O)[C@H](C)NC(=O)[C@H](CCCN=C(N)N)NC(=O)[C@H](CO)NC(=O)[C@H](CC(C)C)NC(=O)[C@H](CCCCN)NC(=O)[C@H](CCCCN)NC(=O)[C@H](CCCCN)NC(=O)[C@H](C)N)C(=O)N[C@@H](CCCN=C(N)N)C(=O)N[C@@H](C)C(=O)N[C@@H](C)C(=O)N[C@H](C(=O)N[C@@H](CCCCN)C(=O)O)C(C)C [AKKKLSRAALRAAVK]

MIC [14]: 3.1 µM (≈ 4.61 µg/mL)
MIC [15]: 1.6 µM (≈ 2.38 µg/mL)
MIC [16]: 1.6 µM (≈ 2.38 µg/mL)
MIC [17]: 3.1 µM (≈ 4.61 µg/mL)
MIC [18]: 1.56 µM (≈ 2.32 µg/mL)
MIC [3]: > 50 µM
MIC [19]: 12.5 µM (≈ 18.6 µg/mL)
MIC (Bacillus subtilis 168): 17.7 µM (≈ 26.3 µg/mL)
MIC [20]: 1.6 µM (≈ 2.38 µg/mL)
MIC [21]: ≥ 50 µM
MIC [22]: 12.5 µM (≈ 18.6 µg/mL)
MIC [23]: 25 µM (≈ 37.2 µg/mL)
MIC [8]: > 50 µM
SMILES: CC[C@H](C)[C@H](NC(=O)[C@H](CCCCN)NC(=O)CNC(=O)[C@H](CC(C)C)NC(=O)[C@@H](NC(=O)[C@H](CO)NC(=O)[C@H](CCCCN)NC(=O)[C@H](CC(C)C)NC(=O)[C@H](Cc1ccccc1)NC(=O)[C@@H]1CCCN1C(=O)[C@H](CC(C)C)NC(=O)[C@@H](N)Cc1ccccc1)[C@@H](C)CC)C(=O)N[C@@H](CC(C)C)C(N)=O [FLPFLKSILGKIL]

MIC [9]: 27.6 µM (≈ 65.1 µg/mL)
MIC [1]: 27.6 µM (≈ 65.1 µg/mL)
MIC (Pseudomonas aeruginosa): 55.2 µM (≈ 130 µg/mL)
MIC [24]: 27.6 µM (≈ 65.1 µg/mL)
SMILES: CC[C@H](C)[C@H](NC(=O)[C@@H]1CCCN1C(C)=O)C(=O)N[C@@H](Cc1cnc[nH]1)C(=O)N[C@@H](CCCN=C(N)N)C(=O)N[C@@H](CCCN=C(N)N)C(=O)N[C@H](C(=O)N1CCC[C@H]1C(=O)N1CCC[C@H]1C(=O)N[C@@H](CCCN=C(N)N)C(=O)N[C@@H](Cc1c[nH]c2ccccc12)C(=O)N1CCC[C@H]1C(=O)N[C@@H](CCCN=C(N)N)C(=O)N[C@@H](CC(C)C)C(=O)N[C@@H](CCCCN)C(=O)N[C@@H](CCCN=C(N)N)C(=O)N[C@@H](CCCN=C(N)N)C(=O)N[C@@H](Cc1c[nH]c2ccccc12)C(N)=O)[C@@H](C)CC [PIHRRIPPRWPRLKRRW]

MIC (Escherichia coli MC1041): 0.096 µM (≈ 0.208 µg/mL)
MIC [25]: 0.067 µM (≈ 0.145 µg/mL)
MIC [26]: 0.096 µM (≈ 0.208 µg/mL)
MIC [27]: 0.126 µM (≈ 0.273 µg/mL)
MIC (Escherichia coli JJ2489): 0.126 µM (≈ 0.273 µg/mL)
MIC (Escherichia coli J2210): 0.126 µM (≈ 0.273 µg/mL)
MIC [28]: 0.126 µM (≈ 0.273 µg/mL)
MIC (Escherichia coli JW0013): 0.048 µM (≈ 0.104 µg/mL)
MIC (Escherichia coli BW25113): 0.062 µM (≈ 0.135 µg/mL)
SMILES: CC(C)C[C@H](NC(=O)[C@H](CCCN=C(N)N)NC(=O)[C@@H]1CCCN1C(=O)[C@H](CCCN=C(N)N)NC(=O)[C@@H]1CCCN1C(=O)[C@@H]1CCCN1C(=O)[C@H](CCCN=C(N)N)NC(=O)[C@@H]1CCCN1C(=O)[C@H](CCC(N)=O)NC(=O)[C@@H]1CCCN1C(=O)[C@H](CCCN=C(N)N)NC(=O)[C@H](Cc1ccc(O)cc1)NC(=O)[C@@H](NC(=O)[C@@H]1CCCN1C(=O)[C@H](CCCN=C(N)N)NC(=O)[C@H](CC(N)=O)NC(=O)[C@H](CC(N)=O)NC(=O)CN)C(C)C)C(=O)O [GNNRPVYRPQPRPPRPRL]

From DBAASP
